# Structures can show the parent of a compound that is named as a salt. Where two headings read alike, the source gives them in different places.
# Tested on: HBV
# Assay: Determination of HBV DNA from the supernatants of HepAD38 cells (anti-HBV activity)
# Format: cell-based, hepatitis B virus
# Settings: Hepatitis B virus, read-out: Cell Activity (EC50)
# Protocol: Determination of HBV DNA from the Supernatants of HepAD38 Cells
# The anti-HBV activity was analysed in the stable transfected cell line HepAD38, which has been described to secrete high levels of HBV virion particles (Ladner et al., 1997). In brief, HepAD38 cells were cultured at 37° C. at 5% CO2 and 95% humidity in 200 μl maintenance medium, which was Dulbecco's modified Eagle's medium/Nutrient Mixture F-12 (Gibco, Karlsruhe), 10% fetal bovine serum (PAN Biotech Aidenbach) supplemented with 50 μg/ml penicillin/streptomycin (Gibco, Karlsruhe), 2 mM L-glutamine (PAN Biotech, Aidenbach), 400 μg/ml G418 (AppliChem, Darmstadt) and 0.3 μg/ml tetracycline. Cells were subcultured once a week in a 1:5 ratio, but were usually not passaged more than ten times. For the assay 60,000 cells were seeded in maintenance medium without any tetracycline into each well of a 96-well plate and treated with serial half-log dilutions of test compound. To minimize edge effects the outer 36 wells of the plate were not used but were filled with assay medium. On each assay plate six wells for the virus control (untreated HepAD38 cells) and six wells for the cell control (HepAD38 cells treated with 0.3 μg/ml tetracycline) were allocated, respectively. In addition, one plate set with reference inhibitors like BAY 41-4109, entecavir, and lamivudine instead of screening compounds were prepared in each experiment. In general, experiments were performed thrice in triplicates. At day 6 HBV DNA from 100 μl filtrated cell culture supernatant (AcroPrep Advance 96 Filter Plate, […] Supor membran, PALL GmbH, Dreieich) was automatically purified on the MagNa Pure LC instrument using the MagNA Pure 96 DNA and Viral NA Small Volume Kit (Roche Diagnostics, Mannheim) according to the instructions of the manufacturer. EC50 values were calculated from relative copy numbers of HBV DNA. In brief, 5 μl of the 100 μl eluate containing HBV DNA were subjected to PCR LC480 Probes Master Kit (Roche) together with 1 μM antisense primer […], 0.5 μM sense primer […], 0.3 μM hybprobes […]-FL and LC640-[…]-PH (TIBMolBiol, Berlin) to a final volume of 12.5 μl. The PCR was performed on the Light Cycler 480 real time system (Roche Diagnostics, Mannheim) using the following protocol: Pre-incubation for 1 min at 95° C., amplification: 40 cycles×(10 sec at 95° C., 50 sec at 60° C., 1 sec at 70° C.), cooling for 10 sec at 40° C. Viral load was quantitated against known standards using HBV plasmid DNA of pCH-9/3091 (Nassal et al., 1990, Cell 63: 1357-1363) and the LightCycler 480 SW 1.5 software (Roche Diagnostics, Mannheim) and EC50 values were calculated using non-linear regression with GraphPad Prism 6 (GraphPad Software Inc., La Jolla, USA).
# [1] = 144 h, HBV DNA in HepAD38 supernatant at day 6
Structure (SMILES),EC50 [1],"EC50 (HePAD38, 144 h)"
"O=C(c1cc2ccccc2[nH]1)N1CCc2nc(NC(=O)C3(O)CC3)sc2C1 [Example 346, 1-hydroxy-N-[5-(1H-indole-2-carbonyl)-4H,5H,6H,7H-[1,3]thiazolo[5,4-c]pyridin-2-yl]cyclopropane-1-carboxamide]",< 1000 nM,–
"COCC1(Nc2nc3c(s2)CN(C(=O)c2cc4ccccc4[nH]2)CC3)CCC1 [Example 347, 5-(1H-indole-2-carbonyl)-N-[1-(methoxymethyl)cyclobutyl]-4H,5H,6H,7H-[1,3]thiazolo[5,4-c]pyridin-2-amine]",< 1000 nM,–
"O=C(c1cc2ccccc2[nH]1)N1CCc2nc(N[C@@H]3CCCC[C@@H]3O)sc2C1 [Example 348, (1S,2R)-2-{[5-(1H-indole-2-carbonyl)-4H,5H,6H,7H-[1,3]thiazolo[5,4-c]pyridin-2-yl]amino}cyclohexan-1-ol]",< 1000 nM,–
"O=C(c1cc2ccccc2[nH]1)N1CCc2nc(NCCn3ccnc3)sc2C1 [Example 349, N-[2-(1H-imidazol-1-yl)ethyl]-5-(1H-indole-2-carbonyl)-4H,5H,6H,7H-[1,3]thiazolo[5,4-c]pyridin-2-amine]",< 1000 nM,–
"O=C(c1cc2ccccc2[nH]1)N1CCc2nc(N[C@H]3CCC[C@@H](O)C3)sc2C1 [Example 350, (1R,3S)-3-{[5-(1H-indole-2-carbonyl)-4H,5H,6H,7H-[1,3]thiazolo[5,4-c]pyridin-2-yl]amino}cyclohexan-1-ol]",< 1000 nM,–
"O=C(CC1CCOC1)Nc1nc2c(s1)CN(C(=O)c1cc3ccccc3[nH]1)CC2 (stereo not shown) [Example 351, N-[5-(1H-indole-2-carbonyl)-4H,5H,6H,7H-[1,3]thiazolo[5,4-c]pyridin-2-yl]-2-(oxolan-3-yl)acetamide]",< 1000 nM,–
"CC(C)c1cccc2[nH]c(C(=O)N3CCc4nc(NCC5(O)CCC5)sc4C3)cc12 [Example 368, 1-[({5-[4-(propan-2-yl)-1H-indole-2-carbonyl]-4H,5H,6H,7H-[1,3]thiazolo[5,4-c]pyridin-2-yl}amino)methyl]cyclobutan-1-ol]",< 1000 nM,–
"O=C(c1cc2cc(F)c(F)cc2[nH]1)N1CCc2nc(NCC3(O)CCC3)sc2C1 [Example 369, 1-({[5-(5,6-difluoro-1H-indole-2-carbonyl)-4H,5H,6H,7H-[1,3]thiazolo[5,4-c]pyridin-2-yl]amino}methyl)cyclobutan-1-ol]",< 1000 nM,–
"O=C(c1cc2cc(F)c(Cl)cc2[nH]1)N1CCc2nc(NCC3(O)CCC3)sc2C1 [Example 373, 1-({[5-(6-chloro-5-fluoro-1H-indole-2-carbonyl)-4H,5H,6H,7H-[1,3]thiazolo[5,4-c]pyridin-2-yl]amino}methyl)cyclobutan-1-ol]",< 1000 nM,–
"O=C(c1cc2c(C(F)(F)F)cccc2[nH]1)N1CCc2nc(NCC3(O)CCC3)sc2C1 [Example 374, 1-[({5-[4-(trifluoromethyl)-1H-indole-2-carbonyl]-4H,5H,6H,7H-[1,3]thiazolo[5,4-c]pyridin-2-yl}amino)methyl]cyclobutan-1-ol]",< 1000 nM,–
"CC(=O)N1CC(C(=O)Nc2nc3c(s2)CN(C(=O)c2cc4ccccc4[nH]2)CC3)C1 [Example 382, 1-acetyl-N-[5-(1H-indole-2-carbonyl)-4H,5H,6H,7H-[1,3]thiazolo[5,4-c]pyridin-2-yl]azetidine-3-carboxamide]",< 1000 nM,–
"CN1CC(C(=O)Nc2nc3c(s2)CN(C(=O)c2cc4ccccc4[nH]2)CC3)C1 [Example 383, N-[5-(1H-indole-2-carbonyl)-4H,5H,6H,7H-[1,3]thiazolo[5,4-c]pyridin-2-yl]-1-methylazetidine-3-carboxamide]",1000 to 10000 nM,–
"O=C(Nc1nc2c(s1)CN(C(=O)c1cc3ccccc3[nH]1)CC2)C1CNC1 [Example 386, N-[5-(1H-indole-2-carbonyl)-4H,5H,6H,7H-[1,3]thiazolo[5,4-c]pyridin-2-yl]azetidine-3-carboxamide hydrochloride]",–,1000 to 10000 nM
"O=C(Nc1nc2c(s1)CN(C(=O)c1cc3c(F)c(F)ccc3[nH]1)CC2)C1CCOCC1 [Example 398, N-[5-(4,5-difluoro-1H-indole-2-carbonyl)-4H,5H,6H,7H-[1,3]thiazolo[5,4-c]pyridin-2-yl]oxane-4-carboxamide]",< 1000 nM,–
"O=C(c1cc2ccccc2[nH]1)N1CCc2nc(NC34CC(C3)C4)sc2C1 [Example 431, N-{bicyclo[1.1.1]pentan-1-yl}-5-(1H-indole-2-carbonyl)-4H,5H,6H,7H-[1,3]thiazolo[5,4-c]pyridin-2-amine]",< 1000 nM,–
"N#CC12CC(Nc3nc4c(s3)CN(C(=O)c3cc5ccccc5[nH]3)CC4)(C1)C2 [Example 435, 3-{[5-(1H-indole-2-carbonyl)-4H,5H,6H,7H-[1,3]thiazolo[5,4-c]pyridin-2-yl]amino}bicyclo[1.1.1]pentane-1-carbonitrile]",< 1000 nM,–
"O=C(c1cc2ccccc2[nH]1)N1CCc2nc(NCC(F)(F)C3CC3)sc2C1 [Example 436, N-(2-cyclopropyl-2,2-difluoroethyl)-5-(1H-indole-2-carbonyl)-4H,5H,6H,7H-[1,3]thiazolo[5,4-c]pyridin-2-amine]",< 1000 nM,–
"Cc1c(F)ccc2[nH]c(C(=O)N3CCc4nc(N)sc4C3)cc12 [Example 437, 5-(5-fluoro-4-methyl-1H-indole-2-carbonyl)-4H,5H,6H,7H-[1,3]thiazolo[5,4-c]pyridin-2-amine]",< 1000 nM,–
"O=C(c1cc2ccccc2[nH]1)N1CCc2nc(NCC3(O)CC(F)(F)C3)sc2C1 [Example 440, 3,3-difluoro-1-({[5-(1H-indole-2-carbonyl)-4H,5H,6H,7H-[1,3]thiazolo[5,4-c]pyridin-2-yl]amino}methyl)cyclobutan-1-ol]",< 1000 nM,–
